Blank lines part the entries; values can stand above or below the molecule they belong to.
Columns and labels:
[1] = solubility in water; type: physicochemical
[2] = stability of crystal form I under lighting, heating and high humidity (purity by HPLC); type: physicochemical; settings: for stability: spread flat in the air, lighting, high temperature and high humidity
Protocol: The sample of crystal form I prepared in Example 1 was spread flat in the air to test its stability under conditions of lighting (4500 Lux), heating (40° C., 60° C.), and high humidity (RH 75%, RH 90%). Samplings were carried out on Day 5 and Day 10.

[3] = special stability study of crystal form I (grinding, heating, pressing); type: physicochemical
Excerpt: Crystal form I of the compound of formula (I) prepared according to the method of Example 1 was ground, heated and pressed.

[4] = pharmacokinetic assay in rats; type: in vivo, Sprague-Dawley (SD) rats; settings: for AUC(0-t) / half-life / MRT inf / Cmax: single; for AUC(0-t): read-out: Area under curve AUC0-t; for half-life: read-out: Half life t1/2 (converted); for MRT inf: read-out: Resistance time MRT0-∞; for Cmax: read-out: Plasma concentration Cmax
Protocol: (§1) In the pharmacokinetic assay of the compound of Example 1 of the present invention, Sprague-Dawley (SD) rats were used as test animals. The compound of Example 1 was administrated intragastrically and intravenously to rats, then the drug concentration in the plasma at different time points was determined by a LC/MS/MS method to study the pharmacokinetic behavior and to evaluate the pharmacokinetic characteristics of the compound of the present invention in rats.

[5] = pharmacokinetic assay in dogs; type: in vivo, Beagle dogs; settings: for AUC(0-t) / half-life / MRT inf / Cmax: single; for AUC(0-t): read-out: Area under curve AUC0-t; for half-life: read-out: Half life t1/2 (converted); for MRT inf: read-out: Resistance time MRT0-∞; for Cmax: read-out: Plasma concentration Cmax
Protocol: as §1, with “Beagle dogs” for “Sprague-Dawley (SD) rats”, “dogs,” for “rats,”, “dogs.” for “rats.”

[6] = Sprague-Dawley, rat, plasma, intravenous, 3 mg/kg
[7] = Sprague-Dawley, rat, plasma, po, intragastric, 3 mg/kg
[8] = Sprague-Dawley, rat, plasma, po, intragastric, 9 mg/kg
[9] = Sprague-Dawley, rat, plasma, po, intragastric, 27 mg/kg
[10] = Beagle, dog, plasma, intravenous, 3 mg/kg
[11] = Beagle, dog, plasma, po, intragastric, 3 mg/kg
[12] = Beagle, dog, plasma, po, intragastric, 9 mg/kg
[13] = beagle, dog, plasma, po, intragastric, 27 mg/kg

solubility in water [1]: almost insoluble
SMILES: O=C(O)C1(Sc2ccnc3ccc(Br)cc23)CCC1 [1-((6-bromoquinolin-4-yl)thio)cyclobutane-1-carboxylic acid, reference compound]

solubility [1]: 140 µg/mL | purity as detected by HPLC ([2]; 40° C., day 0): 99.76% | purity as detected by HPLC ([2]; 40° C., day 5): 99.73% | purity as detected by HPLC ([2]; 40° C., day 10): 99.73% | purity as detected by HPLC ([2]; 60° C., day 0): 99.76% | purity as detected by HPLC ([2]; 60° C., day 5): 99.73% | purity as detected by HPLC ([2]; 60° C., day 10): 99.71% | purity as detected by HPLC ([2]; Lighting (4500 Lux), day 0): 99.76% | purity as detected by HPLC ([2]; Lighting (4500 Lux), day 5): 99.75% | purity as detected by HPLC ([2]; Lighting (4500 Lux), day 10): 99.70% | purity as detected by HPLC ([2]; RH 75%, day 0): 99.76% | purity as detected by HPLC ([2]; RH 75%, day 5): 99.74% | purity as detected by HPLC ([2]; RH 75%, day 10): 99.74% | purity as detected by HPLC ([2]; RH 90%, day 0): 99.76% | purity as detected by HPLC ([2]; RH 90%, day 5): 99.74% | purity as detected by HPLC ([2]; RH 90%, day 10): 99.73% | stability ([2]; listed as crystal form I): good stability | stability ([2]; listed as crystal form I of the compound of formula (I)): stable | DSC peak after treatment ([3]; Grinding treatment for 10 minutes): >300 °C | DSC peak after treatment ([3]; Heating treatment for 3 hours at 80° C.): >300 °C | DSC peak after treatment ([3]; Pressing treatment): >300 °C | stability of the crystal form ([3]; grinding, heating and pressure): stable | oral absorption [4]: well absorbed | AUC(0-t) [4, 6]: 56000 ± 19600 ng·h/mL | half-life [4, 6]: 5.5 ± 1.88 h | MRT inf [4, 6]: 6.18 ± 1.33 h | AUC(0-t) [4, 7]: 41500 ± 27200 ng·h/mL | half-life [4, 7]: 4.58 ± 0.85 h | Cmax [4, 7]: 10500 ± 7900 ng/mL | MRT inf [4, 7]: 6.15 ± 1.51 h | AUC(0-t) [4, 8]: 119000 ± 65000 ng·h/mL | half-life [4, 8]: 5.07 ± 2.08 h | Cmax [4, 8]: 22000 ± 11000 ng/mL | MRT inf [4, 8]: 7.11 ± 1.75 h | AUC(0-t) [4, 9]: 336000 ± 241000 ng·h/mL | half-life [4, 9]: 4.59 ± 0.5 h | Cmax [4, 9]: 38800 ± 17000 ng/mL | MRT inf [4, 9]: 7.09 ± 1.33 h | bioavailability ([4]; Sprague-Dawley, rat, plasma, po, single intragastric 3 mg/kg, from mean AUC0-t, read-out: absolute bioavailability): 74.1% | oral absorption [5]: well absorbed | AUC(0-t) [5, 10]: 14500 ± 3600 ng·h/mL | half-life [5, 10]: 4.51 ± 2.25 h | MRT inf [5, 10]: 3.57 ± 1.89 h | AUC(0-t) [5, 11]: 8630 ± 3440 ng·h/mL | half-life [5, 11]: 3.49 ± 1.2 h | Cmax [5, 11]: 8450 ± 2100 ng/mL | MRT inf [5, 11]: 3.03 ± 1.03 h | AUC(0-t) [5, 12]: 37500 ± 10800 ng·h/mL | half-life [5, 12]: 3.83 ± 2 h | Cmax [5, 12]: 27600 ± 4800 ng/mL | MRT inf [5, 12]: 3.48 ± 1.36 h | AUC(0-t) [5, 13]: 105000 ± 30900 ng·h/mL | half-life [5, 13]: 4.31 ± 1.6 h | Cmax [5, 13]: 78600 ± 22000 ng/mL | MRT inf [5, 13]: 3.38 ± 0.96 h | bioavailability ([5]; beagle, dog, plasma, po, single intragastric 3 mg/kg, from mean AUC0-t, read-out: absolute bioavailability): 59.5%
SMILES: O=C([O-])C1(Sc2ccnc3ccc(Br)cc23)CCC1.[Na+] [Example 1, sodium 1-((6-bromoquinolin-4-yl)thio)cyclobutane-1-carboxylate]
